Assay results: patent US10494346B2, “Substituted pyrimidine-4-carboxylic acids having anticancer activity” (KOREA INSTITUTE OF SCIENCE AND TECHNOLOGY, priority 2016, dated 2019)

Tests used:
[1] = tested on: MDA-MB-231 breast cancer cell line; assay: Inhibitory activity on cancer cell proliferation, MDA-MB-231 (CellTiter-Glo, 72 hours); format: cell-based; conditions: Homo sapiens; MDA-MB-231, 72 hours
Procedure: (§1) The following test was conducted to identify whether the compound of the present invention has inhibitory activity on cancer cell proliferation.
(§2) The cancer cells herein used were lung cancer cell lines (NCI-H1299, A549) and breast cancer cell lines (MDA-MB-231).
(§3) Specifically, the NCI-H1299 cells were large cell lung carcinoma cell lines derived from human lung cancer tissues, and the MDA-MB231 cells were cell lines derived from human breast cancer tissues and obtained from the Korean cell line bank (KNCC, Seoul university), which were used for tests after passage culture. The NCI-H1299 and MDA-MB231 cell lines were cultured in a RPMI1640 medium supplemented with 10% FBS (fetal bovine serum), and were washed with buffered saline (PBS, pH 7.4), when the cells were proliferated on a plate at an affluence of 70 to 80%, and isolated into single cells using a 0.05% trypsin-EDTA (welgene) solution, and then passage-cultured at 1×10e6 cells/mL which were used for the test. 100 μL of NCI-H1299 and 100 μL of MDA-MB231 were seeded on a 96-well plate at 2×10e4 cells/mL, and 5×10e4 cells/mL, respectively, stabilized in the presence of CO2 for 12 hours or longer, and then treated at different concentrations with the subject compound. After 72 hours, absorbance was measured using a CellTiter-Glo® Luminescent Cell Viability Assay (Promega) and an Envision 2103 multilabel reader (PerkinElmer). At this time, cells treated only with dimethylsulfoxide (DMSO) were used as the control group and relative viability (%) was calculated, based on 100% of the control group. GI50 was obtained using Graph PRISM 6 software.

NCI-H1299 cells = assay: Inhibitory activity on cancer cell proliferation, NCI-H1299 (CellTiter-Glo, 72 hours); format: cell-based; conditions: Homo sapiens; NCI-H1299, 72 hours
Procedure: as §1, §2
as §3, with “100 μL of NCI-H1299 and 100 μL of MDA-MB231 were seeded on a 96-well plate at 2×10e4 cells/mL, and 5×10e4 cells/mL, respectively, stabilized in the presence of CO2 for 12 hours or longer, and then treated at different concentrations with the subject compound.” left out, “GI50 was obtained using Graph PRISM 6 software.” left out

[2] = tested on: KDM5A-overexpressed breast cancer cells, MCF7; assay: Growth inhibitory activity on KDM5A-overexpressed cell lines (MCF7), single concentration; format: cell-based; conditions: Homo sapiens; MCF7, single concentration 10 μM; read-out: Growth inhibitory activity at 10 μM (inhibition proportion %)
Procedure: The compound of the present invention was treated at a single concentration with KDM5A-overexpressed breast cancer cells, MCF7, and growth inhibitory activity was measured as an inhibition proportion (%).

[3] = tested on: A549 lung cancer cell line; assay: Inhibitory activity on cancer cell proliferation, A549; format: cell-based; conditions: Homo sapiens
Procedure: as §1, §2
as §3, with “100 μL of NCI-H1299 and 100 μL of MDA-MB231 were seeded on a 96-well plate at 2×10e4 cells/mL, and 5×10e4 cells/mL, respectively, stabilized in the presence of CO2 for 12 hours or longer, and then treated at different concentrations with the subject compound.” left out, “GI50 was obtained using Graph PRISM 6 software.” left out

[4] = biological target: KDM5A (lysine demethylase 5A) (Homo sapiens, UniProt P29375); assay: Inhibitory activity against histone demethylase (in vitro IC50); format: biochemical
Procedure: Inhibitory activity against histone demethylase of the compound of the present invention was evaluated.

KDM5A (lysine demethylase 5A), sequence (P29375 whole entry, species assumed): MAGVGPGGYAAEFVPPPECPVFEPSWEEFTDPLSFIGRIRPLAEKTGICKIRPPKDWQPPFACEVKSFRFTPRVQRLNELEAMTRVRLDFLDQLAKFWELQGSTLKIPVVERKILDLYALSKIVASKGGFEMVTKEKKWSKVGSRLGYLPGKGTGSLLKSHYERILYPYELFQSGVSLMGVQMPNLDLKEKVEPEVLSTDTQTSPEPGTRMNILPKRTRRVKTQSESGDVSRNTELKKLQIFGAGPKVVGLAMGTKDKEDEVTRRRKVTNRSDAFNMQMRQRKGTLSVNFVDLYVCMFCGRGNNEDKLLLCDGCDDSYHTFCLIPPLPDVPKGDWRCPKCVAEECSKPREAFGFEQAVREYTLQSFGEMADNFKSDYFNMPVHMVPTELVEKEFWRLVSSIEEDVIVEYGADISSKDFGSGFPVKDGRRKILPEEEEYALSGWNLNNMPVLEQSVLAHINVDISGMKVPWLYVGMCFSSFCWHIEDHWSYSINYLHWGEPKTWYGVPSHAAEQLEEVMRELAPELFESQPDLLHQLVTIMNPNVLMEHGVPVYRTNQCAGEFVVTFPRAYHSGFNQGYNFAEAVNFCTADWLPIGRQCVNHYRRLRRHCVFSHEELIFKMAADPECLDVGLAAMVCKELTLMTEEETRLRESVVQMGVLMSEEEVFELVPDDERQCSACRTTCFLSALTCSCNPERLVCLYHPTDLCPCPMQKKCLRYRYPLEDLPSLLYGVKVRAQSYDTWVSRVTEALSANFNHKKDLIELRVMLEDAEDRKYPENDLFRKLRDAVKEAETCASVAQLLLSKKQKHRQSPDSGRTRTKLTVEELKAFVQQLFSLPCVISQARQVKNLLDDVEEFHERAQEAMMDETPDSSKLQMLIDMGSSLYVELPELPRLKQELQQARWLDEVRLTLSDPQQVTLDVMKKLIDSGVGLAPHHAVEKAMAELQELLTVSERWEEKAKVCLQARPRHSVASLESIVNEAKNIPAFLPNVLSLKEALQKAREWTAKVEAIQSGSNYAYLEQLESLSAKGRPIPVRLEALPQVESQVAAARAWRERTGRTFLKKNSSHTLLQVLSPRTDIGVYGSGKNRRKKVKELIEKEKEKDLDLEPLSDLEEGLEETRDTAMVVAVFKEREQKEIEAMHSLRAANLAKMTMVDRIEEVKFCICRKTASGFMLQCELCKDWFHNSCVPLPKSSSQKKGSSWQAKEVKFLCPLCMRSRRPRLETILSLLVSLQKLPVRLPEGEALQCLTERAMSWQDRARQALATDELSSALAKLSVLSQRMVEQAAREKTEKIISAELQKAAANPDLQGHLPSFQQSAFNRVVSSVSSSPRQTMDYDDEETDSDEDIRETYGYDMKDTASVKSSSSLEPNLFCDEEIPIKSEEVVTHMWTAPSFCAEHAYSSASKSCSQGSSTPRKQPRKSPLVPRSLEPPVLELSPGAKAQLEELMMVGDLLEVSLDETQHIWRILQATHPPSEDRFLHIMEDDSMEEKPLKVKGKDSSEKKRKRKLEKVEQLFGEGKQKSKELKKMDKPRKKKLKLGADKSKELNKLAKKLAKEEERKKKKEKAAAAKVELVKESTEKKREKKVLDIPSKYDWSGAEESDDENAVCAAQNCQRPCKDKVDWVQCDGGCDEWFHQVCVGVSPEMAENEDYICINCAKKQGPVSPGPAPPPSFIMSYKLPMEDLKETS

| SMILES | GI50 [1] [µM] | also measured |
| --- | --- | --- |
| O=C(O)c1ncncc1NCc1cccc(F)c1 [Example 10, 5-((3-fluorobenzyl)amino)pyrimidine-4-carboxylic Acid] |  | GI50 (NCI-H1299 cells): < 10 µM |
| Cc1ccc(CNc2cncnc2C(=O)O)cc1 [Example 9, 5-((4-methylbenzyl)amino)pyrimidine-4-carboxylic Acid] | 10 to 100 |  |
| O=C(O)c1ncncc1NCc1ccc(-c2ccccc2)cc1 [Example 1, 5-(([1,1′-biphenyl]-4-ylmethyl)amino)pyrimidine-4-carboxylic Acid] |  | inhibition at 10 µM [2]: 40 to 80% |
| CCCn1nc(Nc2cncnc2C(=O)O)c2ccccc21 [Example 12, 5-((1-propyl-1H-indazol-3-yl)amino)pyrimidine-4-carboxylic Acid] | 10 to 100 | GI50 [3]: 10 to 100 µM; IC50 [4]: < 3 µM |

Now from value to molecule, other results behind:

| GI50 [1] [µM] | SMILES | also measured |
| --- | --- | --- |
| 10 to 100 | O=C(O)c1ncncc1NCc1ccc(F)cc1 [Example 6, 5-((4-fluorobenzyl)amino)pyrimidine-4-carboxylic Acid] |  |
| 10 to 100 | O=C(O)c1ncncc1NCc1ccc(Cl)c(Cl)c1 [Example 3, 5-((3,4-dichlorobenzyl)amino)pyrimidine-4-carboxylic Acid] | GI50 [3]: 10 to 100 µM |
| 10 to 100 | O=C(O)c1ncncc1NCc1cc(C(F)(F)F)cc(C(F)(F)F)c1 [Example 7, 5-((3,5-bis(trifluoromethyl)benzyl)amino)pyrimidine-4-carboxylic Acid] |  |
